Laboratory results as given in the supplement of paper PMC10307832.

Experiments:
Assay in all cases: relative viability (nuclei count vs DMSO), 5 days (fraction); higher = more cells survive
BAM7 + Navitoclax = compound: CCOC1=CC=CC=C1N=NC2=C(NN(C2=O)C3=NC(=CS3)C4=CC=CC=C4)C [BAM7] + CC1(C)CCC(c2ccc(Cl)cc2)=C(CN2CCN(c3ccc(C(=O)NS(=O)(=O)c4ccc(N[C@H](CCN5CCOCC5)CSc5ccccc5)c(S(=O)(=O)C(F)(F)F)c4)cc3)CC2)C1 [Navitoclax] (partner 0.5 µM)
Method in brief: (§1)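 Lung cancer cell lines in 1536-well plates got either a single drug or a fixed anchor-drug dose together with five library-drug doses (not always all listed) in √10 steps, by pin tool, on the day after seeding. Nuclei were counted after 5 days, and relative viability is the treated-to-vehicle ratio of nuclei counts. Values are medians of duplicate plates.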

[1] = compound: CCn1c(-c2nonc2N)nc2c(C#CC(C)(C)O)ncc(OC[C@H]3CCCNC3)c21 + C[C@]1(O)C[C@@H](c2nc(-c3ccc4ccc(-c5ccccc5)nc4c3)c3c(N)nccn32)C1 [Linsitinib] (partner 1 µM)
Method in brief: as §1

[2] = compound: CCn1c(-c2nonc2N)nc2c(C#CC(C)(C)O)ncc(OC[C@H]3CCCNC3)c21 + C[C@@H](Oc1cc(-c2cnn(C3CCNCC3)c2)cnc1N)c1c(Cl)ccc(F)c1Cl [Crizotinib] (partner 1 µM)
Method in brief: as §1

BAM7 + Palbociclib = compound: CCOC1=CC=CC=C1N=NC2=C(NN(C2=O)C3=NC(=CS3)C4=CC=CC=C4)C [BAM7] + CC(=O)c1c(C)c2cnc(Nc3ccc(N4CCNCC4)cn3)nc2n(C2CCCC2)c1=O [Palbociclib] (partner 0.5 µM)
Method in brief: as §1

Cell Line	relative viability (BAM7 + Navitoclax; first compound 0.5 µM)	relative viability (BAM7 + Navitoclax; first compound 5 µM)	relative viability (BAM7 + Navitoclax; first compound 15.81 µM)	relative viability (BAM7 + Navitoclax; first compound 50 µM)	relative viability ([1]; first compound 0.01 µM)	relative viability ([1]; first compound 0.03162 µM)	relative viability ([1]; first compound 0.1 µM)	relative viability ([1]; first compound 0.3162 µM)	relative viability ([1]; first compound 1 µM)	relative viability ([2]; first compound 0.01 µM)	relative viability ([2]; first compound 0.03162 µM)	relative viability ([2]; first compound 0.1 µM)	relative viability ([2]; first compound 0.3162 µM)	relative viability ([2]; first compound 1 µM)	relative viability (BAM7 + Palbociclib; first compound 0.5 µM)	relative viability (BAM7 + Palbociclib; first compound 5 µM)	relative viability (BAM7 + Palbociclib; first compound 15.81 µM)	relative viability (BAM7 + Palbociclib; first compound 50 µM)
HCC-366	1.11	0.981	0.964	0.957	0.598	0.761	0.498	0.522	0.668	0.505	0.644	0.59	0.501	0.534	0.406	0.343	0.303	0.389
HCC-827	1.06	1.04	0.914	0.939	0.879	1.03	0.97	0.942	0.962	0.884	0.917	0.879	0.865	0.882	0.532	0.467	0.493	0.481
HOP-62	1.03	1.23	1.04	1.06	1.07	0.942	1.03	0.921	0.878	0.769	0.978	0.929	0.874	0.888	0.45	0.385	0.454	0.491
IA-LM	0.689	0.556	0.556	0.658	0.62	0.554	0.658	0.518	0.464	0.824	0.601	0.862	0.703	0.323				
LC-2-ad	0.548	0.532	0.422	0.464	0.878	0.919	0.836	0.849	0.875	0.452	0.483	0.448	0.493	0.479	0.487	0.478	0.545	0.485
LCLC-97TM1	0.569	0.401	0.419	0.61		0.159	0.169	0.229	0.21		0.435	0.331	0.333	0.367	0.272	0.185		0.186
LCLC-103H					1.13	1.09	1.01	1.04	1.15	0.964	1.07	1.05	1.11	1.02	0.507	0.493	0.484	0.529
LK-2	0.896	0.893	0.886	0.85	0.7	0.715	0.422	0.746	0.559	0.247	0.181	0.215	0.24	0.232	0.662	0.648	0.741	0.598
LOU-NH91	0.708	0.75	0.69	0.655	0.953	0.987	0.963	0.88	0.886	0.758	0.747	0.742	0.543	0.754	0.458	0.569	0.538	0.517
NCI-H358					0.812	0.877	0.667	0.631	0.562	0.485	0.604	0.51	0.669	0.611		0.129	0.141	0.137
NCI-H522															1.19	0.986	0.649	1.16
NCI-H596	0.82	0.937	0.92	1.06	0.993	1.08	0.931	1.03	1.03	0.834	1.08	0.996	0.915	0.948				
NCI-H650					0.714	0.79	0.959	0.766	0.789	0.561	0.697	0.683	0.68	0.666	0.324	0.32	0.272	0.318
NCI-H661					0.566	0.658	0.508	0.546	0.576	1.03	0.984	1.08	0.992	0.989	0.443	0.433	0.422	0.422
NCI-H1299	1.05	1.08	1.07	1.06	0.95	1.06	0.948	0.941	1.02	0.935	0.927	0.948	0.919	0.997				
NCI-H1395	1.15	1.14	1.1	1.13	0.997	0.972	1.12	1	0.904						0.578	0.627	0.606	0.614
NCI-H1563					1.18	1.07	1.15	1.08	0.96	0.853	0.923	0.799	0.772	0.81				
NCI-H1648															0.303	0.257	0.264	0.375
NCI-H1650	1.46	1.26	1.15	1.15						0.964	1.06	0.924	0.971	1.07	0.351	0.268	0.304	0.456
NCI-H1703	1.35	1.13	0.941	0.872	0.939	0.836	0.594	0.449	0.358	0.465	0.656	0.59	0.482	0.376				
NCI-H1793	0.401	0.565	0.437	0.411	0.761	0.835	0.756	0.851	0.806						0.252	0.291	0.251	0.34
NCI-H2170	0.559	0.581	0.479	0.598						1.16	1.26	1.1	1.15	1.24	0.38	0.381	0.329	0.319
NCI-H2342															0.482	0.498	0.531	0.539
SW 900																0.543		0.596
